Results: paper PMC11530827, “Characterization of a cytochrome P450 that catalyzes the O-demethylation of lignin-derived benzoates” (The Journal of Biological Chemistry, 2024)

Tests used:
PbdA S87A = biological target: T1, PbdA S87A (Rhodococcus jostii, UniProt Q0SCI3, S85A); assay: Activity and coupling assay of PbdA S87A variant with PbdB; format: biochemical, Rhodococcus jostii RHA1
T1 construct: hexaHis (N, cleaved yes); made in house; host or cells: PbdA variant: E. coli BL-21 λ (DE3); PbdB: Rhodococcus jostii RHA1
T1 sequence (Q0SCI3 entry or part of it S85A): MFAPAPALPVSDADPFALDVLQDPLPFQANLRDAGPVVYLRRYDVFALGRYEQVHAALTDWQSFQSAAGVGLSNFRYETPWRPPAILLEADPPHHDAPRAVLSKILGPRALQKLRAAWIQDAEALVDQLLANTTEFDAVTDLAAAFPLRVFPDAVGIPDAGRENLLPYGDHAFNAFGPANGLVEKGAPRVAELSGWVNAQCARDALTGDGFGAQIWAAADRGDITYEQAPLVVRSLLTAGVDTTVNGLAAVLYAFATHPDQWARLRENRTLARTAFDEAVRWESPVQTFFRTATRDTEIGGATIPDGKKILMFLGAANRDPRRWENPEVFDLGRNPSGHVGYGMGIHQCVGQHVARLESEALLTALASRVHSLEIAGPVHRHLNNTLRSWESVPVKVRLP
Procedure: (§1) For activity measurements 0.25 to 1 μM of PbdA and PbdB were combined in a 200 μl cuvette in 20 mM Mops, pH 7.2 with substrate diluted in the same buffer. NADH was added to 350 μM to initiate the reaction. For HPLC analysis, enzymatic reactions were acidified by adding acetic acid to 10% final concentration, centrifuged (16,000×g for 10 min), and filtered through a 0.2 μm polytetrafluoroethylene membrane. Samples were run over a Luna 5 μm C18(2) 100 Å 150 × 3 mm column (Phenomenex) at 0.7 ml min^−1 by a Waters 2695 separation HPLC module. Samples were eluted with a 16.8 ml linear gradient from 1% methanol plus 0.1% formic acid in water to 100% methanol plus 0.1% formic acid and monitored at 280 nm with a Waters 2996 photodiode array detector. Concentrations were determined by interpolation on a standard curve of 0 to 1 mM of authentic standard. NADH concentration was measured by absorbance at 340 nm, ε = 6.22 mM^-1 cm^-1. Coupling was calculated from the ratio of rate of aromatic turnover, as determined by HPLC, and the rate of NADH oxidation, determined spectroscopically. Buffer ionic strength was adjusted by addition of NaCl, as appropriate. Apparent steady-state kinetic parameters were calculated by fitting Michaelis–Menten equations to initial velocity of reactions at various concentrations of aromatic substrate (LEONORA).
(§2) ^aExperiments were performed using air-saturated MOPS (I = 0.1 M), pH 7.2, at 25 °C. The rate of aromatic substrate turnover was based on the appearance of O-demethylated product. Standard deviation is shown in parentheses.

PbdA = biological target: T2, PbdA (Rhodococcus jostii, UniProt Q0SCI3); assay: Substrate binding to PbdA (WT) by type I spectral shift titration; design: hexaHis (N, cleaved yes); made in house; host or cells: PbdA: E. coli BL-21 λ (DE3); PbdB: Rhodococcus jostii RHA1; settings: WT PbdA
T2 sequence (Q0SCI3 1-400): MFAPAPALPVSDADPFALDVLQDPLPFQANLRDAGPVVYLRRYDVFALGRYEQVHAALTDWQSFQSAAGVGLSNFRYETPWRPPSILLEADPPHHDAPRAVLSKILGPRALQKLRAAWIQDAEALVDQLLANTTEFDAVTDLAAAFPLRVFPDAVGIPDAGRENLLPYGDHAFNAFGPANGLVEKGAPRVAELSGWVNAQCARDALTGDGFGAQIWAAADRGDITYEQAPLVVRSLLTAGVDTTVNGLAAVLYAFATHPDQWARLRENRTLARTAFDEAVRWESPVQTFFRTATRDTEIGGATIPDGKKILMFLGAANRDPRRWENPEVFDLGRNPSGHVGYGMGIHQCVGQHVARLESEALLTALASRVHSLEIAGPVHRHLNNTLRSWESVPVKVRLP
Procedure: The affinity of PbdA for various LDACs was measured by the type I spectral shift upon titration of aromatic compound (Fig. 2). This shift occurs as the compound displaces a water coordinated to the heme iron, initiating a spin state transition in the latter from a low spin, hexacoordinate, to a high spin, pentacoordinate form.
Figure 2 Substrate binding of PbdA. A, difference spectra of PbdA titrated with 1 to 50 μM p-MBA from the substrate-free enzyme. Darker colors indicate higher concentration of p-MBA. Spectra were collected after each addition of substrate to 1 μM enzyme in 20 mM Mops, I = 0.1 M, pH 7.2. B, binding isotherm of PbdA and p-MBA. The fitted curve represents a simple hyperbola. p-MBA, para-methoxybenzoate.
UV-visible spectroscopy was conducted with a Cary 60 spectrophotometer equipped with a thermostatted cuvette holder at 25 °C. Scans of purified proteins diluted in 20 mM Mops, I = 0.1 M, pH 7.2 were taken between 250 and 700 nm. Heme concentration was calculated as described previously ([35]). Carbon monoxide binding was determined by reduction of PbdA diluted in 20 mM Mops, I = 0.1 M, pH 7.2 as above by a few grains of […]. CO was bubbled into the reduced enzyme for approximately 60 s at a rate of one bubble per second. Dissociation constants (Kd) were determined by titration of ligands diluted into enzyme buffer from 1 M stocks prepared in dimethyl sulfoxide into PbdA diluted in 20 mM Mops, I = 0.1 M, pH 7.2. Spectra take upon addition of substrate were subtracted from the spectrum of the enzyme, and peak-to-trough distance was plotted by ligand concentration. Kd values were determined by fitting a hyperbolic equation to the data as described previously ([23], [36]). The proportion of high-spin heme iron was determined using the approximate peak-to-trough extinction coefficient (ε ≈ 100 mM^−1 cm^−1) ([36]).

PbdA R84M = biological target: T3, PbdA R84M (Rhodococcus jostii, UniProt Q0SCI3, R82M); assay: Activity and coupling assay of PbdA R84M variant with PbdB; format: biochemical, Rhodococcus jostii RHA1
T3 construct: hexaHis (N, cleaved yes); made in house; host or cells: PbdA variant: E. coli BL-21 λ (DE3); PbdB: Rhodococcus jostii RHA1
T3 sequence (Q0SCI3 entry or part of it R82M): as the sequence (Q0SCI3 entry or part of it S85A) above, with R82M, A85S counted along it
Procedure: as §1, §2

[1] = air-saturated MOPS (I = 0.1 M), pH 7.2, 25 °C
[2] = appearance of O-demethylated product

COc1ccc(C(=O)O)cc1 [p-MBA, p-methoxybenzoate]
Coupling (PbdA S87A): 45 (7) %
Specific activity (PbdA S87A; O-demethylation): 800 (200) U μg P450^-1
NADH depletion rate (PbdA S87A; [1]): 1700 (200) U mg P450^-1
Rate of Aromatic turnover (PbdA S87A; [2]): 800 (200) U mg P450^-1
Kd (PbdA; 20 mM Mops, I = 0.1 M, pH 7.2, 25 °C, SD in parentheses, read-out: Kd): 3.8 µM
%High-spin (percent of heme iron in high-spin state) (PbdA; on substrate binding): >99%
Coupling (PbdA R84M): 70 (9) %
Specific activity (PbdA R84M; O-demethylation): 1100 (200) U μg P450^-1
NADH depletion rate (PbdA R84M; [1]): 1700 (200) U mg P450^-1
Rate of Aromatic turnover (PbdA R84M; [2]): 1100 (200) U mg P450^-1
